# Literature values, collected in patent US20080261937A1, “PHARMACEUTICAL COMPOSITIONS AND METHOD FOR TREATING PEDIATRIC HYPOGONADISM” (priority 2007, published 2008).
smiles,measurement,setting,value
C[C@]12CC[C@H]3[C@@H](CCC4=CC(=O)CC[C@@]43C)[C@@H]1CC[C@@H]2O [testosterone],bound to proteins in the blood,circulating testosterone,98%
same,share bound weakly to albumin,in males,60%
same,share of binding to sex hormone binding globulin (SHBG),in males,approximately 40%
